Test results reported in patent US3956287A, “7-[(2-Oxo-1-pyridinyl)acylamino]cephalosporin derivatives” (Richardson-Merrell Inc., priority 1973, dated 1976).
≈ marks a conversion by molar mass, not a printed value. Structures can show the parent of a compound that is named as a salt. Where two headings read alike, the source gives them in different places.

Columns and labels:
Staphylococcus aureus = test: in vitro antibacterial activity, minimal inhibiting concentration, Staphylococcus aureus; assay type: cell-based; settings: read-out: Minimal inhibiting concentration, Staphylococcus aureus
Procedure: (§1) Specific nutrient agar plates are completely innoculated with the various test organisms. Filter paper discs are placed on the surface of the agar and wetted with 0.1 ml of a solution containing 10, 100 and 1,000 micrograms of the test compound. Zones of inhibition of microbial growth are used to indicate the antibacterial activity of the test compound against the various test organisms employed.
(§2) The following table summarizes the in vitro activity in terms of a concentration required to inhibit the growth of various typical bacteria for the following representative compounds: 6-[2-(2-oxo-1-pyridinyl)acetylamino]penicillanic acid, sodium salt (1), 7-[2-(2-oxo-1-pyridinyl)acetylamino]desacetoxycephalosporanic acid, sodium salt (2), 6-[2-(6-methyl-2-oxo-1-pyridinyl)acetylamino]pencillanic acid (3), 6-[2-(2-oxo-1-pyridinyl)-2-methylacetylamino]penicillanic acid (4), 6-[2-(5-chloro-2-oxo-1-pyridinyl)acetylamino]penicillanic acid (5), 6-[2-(5-nitro-2-oxo-1-pyridinyl)acetylamino]penicillanic acid (6), 6-[ 2-(5-amino-2-oxo-1-pyridinyl)acetylamino]penicillanic acid (7), 6-[2-(3-methoxy-2-oxo-1-pyridinyl)acetylamino]penicillanic acid (8), and 7-[2-(2-oxo-1-pyridinyl)acetylamino]cephalosporanic acid (9).

[1] = system: Salmonella schottmuelleri; test: in vitro antibacterial activity, minimal inhibiting concentration, Salmonella schottmuelleri; assay type: cell-based; settings: read-out: Minimal inhibiting concentration, Salmonella schottmuelleri
Procedure: as §1, §2

Streptococcus pyogenes = test: in vitro antibacterial activity, minimal inhibiting concentration, Streptococcus pyogenes; assay type: cell-based; settings: read-out: Minimal inhibiting concentration, Streptococcus pyogenes
Procedure: as §1, §2

[2] = system: (Penicillinase Producing) Staphylococcus aureus; test: in vitro antibacterial activity, minimal inhibiting concentration, penicillinase producing Staphylococcus aureus; assay type: cell-based; settings: read-out: Minimal inhibiting concentration, (Penicillinase Producing) Staphylococcus aureus
Procedure: as §1, §2

Acid Resistance = assay type: physicochemical
[3] = in vitro, filter paper discs on nutrient agar, 0.1 ml of solution containing 10, 100 and 1,000 micrograms
[4] = penicillinase producing strain, in vitro, filter paper discs on nutrient agar, 0.1 ml of solution containing 10, 100 and 1,000 micrograms

Structure (SMILES)	Acid Resistance (Acid Resistance)	MIC (Staphylococcus aureus; [3])	MIC [1, 3]	MIC (Streptococcus pyogenes; [3])	MIC [2, 4]	MIC (Staphylococcus aureus)	MIC [1]	MIC (Streptococcus pyogenes)	MIC [2]
CC1(C)S[C@@H]2C(NC(=O)Cn3ccccc3=O)C(=O)N2[C@H]1C(=O)[O-].[Na+] (some centres unmarked) [Compound 1, 6-[2-(2-oxo-1-pyridinyl)acetylamino]penicillanic acid, sodium salt]	Yes	–	–	–	–	10 µg/mL	1000 µg/mL	10 µg/mL	1000 µg/mL
CC1=C(C(=O)O)N2C(=O)C(NC(=O)Cn3ccccc3=O)C2SC1 (centres unmarked) [Compound 2, 7-[2-(2-oxo-1-pyridinyl)acetylamino]desacetoxycephalosporanic acid, sodium salt]	Yes	1000 µg/mL	> 1000 µg/mL	1000 µg/mL	> 1000 µg/mL	–	–	–	–
Cc1cccc(=O)n1CC(=O)NC1C(=O)N2C1SC(C)(C)C2C(=O)O (centres unmarked) [Compound 3, 6-[2-(6-methyl-2-oxo-1-pyridinyl)acetylamino]pencillanic acid]	Yes	10 µg/mL (≈ 27.4 µM)	1000 µg/mL (≈ 2740 µM)	1000 µg/mL (≈ 2740 µM)	1000 µg/mL (≈ 2740 µM)	–	–	–	–
CC1(C)S[C@@H]2C(NC(=O)Cn3cc(Cl)ccc3=O)C(=O)N2[C@H]1C(=O)O (some centres unmarked) [Compound 5, 6-[2-(5-chloro-2-oxo-1-pyridinyl)acetylamino]penicillanic acid]	Yes	10 µg/mL (≈ 25.9 µM)	1000 µg/mL (≈ 2590 µM)	1000 µg/mL (≈ 2590 µM)	> 1000 µg/mL	–	–	–	–
CC1(C)S[C@@H]2C(NC(=O)Cn3cc([N+](=O)[O-])ccc3=O)C(=O)N2[C@H]1C(=O)O (some centres unmarked) [Compound 6, 6-[2-(5-nitro-2-oxo-1-pyridinyl)acetylamino]penicillanic acid]	Yes	10 µg/mL (≈ 25.2 µM)	1000 µg/mL (≈ 2520 µM)	> 1000 µg/mL	> 1000 µg/mL	–	–	–	–
CC1(C)S[C@@H]2C(NC(=O)Cn3cc(N)ccc3=O)C(=O)N2[C@H]1C(=O)O (some centres unmarked) [Compound 7, 6-[2-(5-amino-2-oxo-1-pyridinyl)acetylamino]penicillanic acid]	Yes	10 µg/mL (≈ 27.3 µM)	1000 µg/mL (≈ 2730 µM)	> 1000 µg/mL	> 1000 µg/mL	–	–	–	–

Continued by falling MIC (Staphylococcus aureus; [3]), values first:

Acid Resistance (Acid Resistance)	MIC (Staphylococcus aureus; [3])	MIC [1, 3]	MIC (Streptococcus pyogenes; [3])	MIC [2, 4]	Structure (SMILES)	MIC (Staphylococcus aureus)	MIC [1]	MIC (Streptococcus pyogenes)	MIC [2]
Weak	1000 µg/mL (≈ 2740 µM)	1000 µg/mL (≈ 2740 µM)	1000 µg/mL (≈ 2740 µM)	1000 µg/mL (≈ 2740 µM)	CC(C(=O)NC1C(=O)N2[C@@H]1SC(C)(C)[C@@H]2C(=O)O)n1ccccc1=O (some centres unmarked) [Compound 4, 6-[2-(2-oxo-1-pyridinyl)-2-methylacetylamino]penicillanic acid]	–	–	–	–
Yes	10 µg/mL (≈ 26.2 µM)	1000 µg/mL (≈ 2620 µM)	–	1000 µg/mL (≈ 2620 µM)	COc1cccn(CC(=O)NC2C(=O)N3[C@@H]2SC(C)(C)[C@@H]3C(=O)O)c1=O (some centres unmarked) [Compound 8, 6-[2-(3-methoxy-2-oxo-1-pyridinyl)acetylamino]penicillanic acid]	–	–	–	–
Yes	10 µg/mL (≈ 24.5 µM)	100 µg/mL (≈ 245 µM)	10 µg/mL (≈ 24.5 µM)	1000 µg/mL (≈ 2450 µM)	CC(=O)OCC1=C(C(=O)O)N2C(=O)C(NC(=O)Cn3ccccc3=O)C2SC1 (centres unmarked) [Compound 9, 7-[2-(2-oxo-1-pyridinyl)acetylamino]cephalosporanic acid]	–	–	–	–
